The values below come from article PMC12626088 (RSC Advances, 2025).

Molecules are shown by their SMILES. Values after ≈ are worked out from the molar mass of the structure shown.

One test concerns the target α-amylase. As to the kind of experiment: α-amylase inhibition assay. The format is biochemical. The following applies: sample described as 'SR (compound 4a) methanolic extract'.
The next test has as its target α-glucosidase. As to the kind of experiment: α-glucosidase inhibition assay. It is filed as biochemical. The following applies: sample described as 'SR (compound 4a) methanolic extract'.

Regarding `C(#CC(c1ccccc1)N1CCOCC1)c1ccccc1` (centres unmarked) [4a, 4-(1,3-diphenylprop-2-yn-1-yl)morpholine], the values for the half-inhibitory concentration (IC50) at α-amylase and against α-glucosidase were 112.98 µg/mL (≈ 407 µM) and 111.42 µg/mL (≈ 402 µM), respectively.
